The results in this text go back to article PMC11763059, “GENI as an AMPK Activator Binds α and γ Subunits and Improves the Memory Dysfunction of Alzheimer’s Disease Mouse Models via Autophagy and Neuroprotection” (Antioxidants, 2025).

One assay deals with D-gal-induced AD mice. Kind of assay: Behaviour tests in D-gal-induced AD mice. Type of assay: in vivo. Here is the method: Each group comprised 10 mice. […] Dosing lasted for 10 weeks. […] The mice were sacrificed after 10 weeks of administration.
The Y-maze is mainly used to study the spatial working memory ability of rodents. The Y-maze consisted of three equal-length arms (50 cm × 18 cm × 35 cm), and the angle between each two arms was 120 degrees. The mice were placed at the end of any arm of the Y-maze and allowed to explore freely for 8 min. The behavioral changes including the total number of entries and alternation (successively entering all three arms of the Y-maze once in turn) were recorded. Percentage altercation = alternation/(entries-2) × 100%. The Y-maze could effectively reflect the ability of animals to recognize and remember novel environments.
NOR was used to detect memory in rodents. We prepared a 40 × 40 × 40 cm square box, camera equipment, and behavioral analysis software. We chose three objects A, B, and C, where objects A and B were exactly the same, and object C was very different from objects A and B. After the start of the experiment, the mice were allowed to acclimate freely in the experimental apparatus for 10 min. Objects A and B were placed into the box, and the mice were allowed to explore for 5 min. We then recorded the exploration time and times. After 1 h, A and C or B and C were placed into the box. After letting the mice explore for 5 min, we recorded the exploration time of the original object and the new object. Discrimination index = exploration time of new objects/total exploration time × 100%.
The MWM installation consisted of a circular pool (120 cm in diameter and 50 cm in height), camera equipment, and a computer analysis system. In the first stage, the platform position was fixed, and mice were placed into the pool from any three of the four origins on the pool facing away from the pool wall. The time when it took for the mouse to find the platform within 120 s, called escape latency, was recorded. The training period lasted 4 days. The escape latency of the mice was recorded daily, and the average value was used as an index to evaluate the ability of learning and memory. On the 5th day, the platform was evacuated by the experimenter. The mice were placed against the platform into the water from any water entry point, and they were allowed to swim freely for 60 s. We then recorded the number of times that they crossed the platform.
The rationale for the three-box social test is based on the fact that mice are naturally gregarious and tend to explore new objects. The experimental device consisted of three rectangular boxes, each with a size of 19×45 cm, with a channel in the middle to allow the three boxes to connect with one another. Two metal cages of the same size were placed in the centre of the left and right boxes. Firstly, the mice were placed in the box for 10 min. Secondly, stranger 1 mouse was randomly placed in the metal cage in the left or right box, and the metal cage in the other box was empty. The experimental mice were placed in the box for 10 min. The number and duration of direct contact between the experimental mice and stranger 1 were recorded. Thirdly, strange 2 mice were placed in the empty metal cage of the second stage experiment and then recorded for 10 min. We observed the time and number of contacts between stranger 1 and stranger 2 and calculated the social preference and sociability index.

Another assay has as its system PC12 cells. Kind of assay: MDA content assay in PC12 cells. Type of assay: cell-based. The note with it: GENI 3 or 10 μM 24 h, 0.8 mM H2O2 1 h. Here is the method:
To determine ROS levels in PC12 cells, we seeded 5 × 10^4 PC12 cells in each well of a 24-well plate. Cells were treated with RES (10 μM) or GENI (1, 3, and 10 μM) for 24 h, followed by 0.8 mM H2O2 for 1 h. DCFH-DA (2,7-dichlorodihydrofluorescein diacetate, final concentration, 10 μM) was then added to each well and incubated for 30 min. Cells were washed with PBS to remove extracellular DCFH-DA, and intercellular ROS was detected by using a SpectraMax M3 multimode microplate reader (Molecular Devices Corporation, San Jose, CA, USA) at an excitation wavelength of 488 nm and an emission wavelength of 525 nm. Meanwhile, DCF in PC12 cells was observed using a fluorescence microscope (HCS, Thermo Fisher, Science, Waltham, MA, USA). To detect malondialdehyde (MDA) content and total SOD enzymatic activities in PC12 cells, we seeded 2 × 10^6 PC12 cells in 60 mm dishes containing 5 mL of DMEM and cultured the cells for 24 h. PC12 cells were treated with RES (10 μM) or GENI (3 or 10 μM) for 24 h and then treated with 0.8 mM H2O2 for 1 h to determine the MDA content and total superoxide dismutase (SOD) activities. Cells were lysed and centrifuged. […] MDA quantification and total SOD activities were determined using MDA and SOD enzyme activity assay kits (Nanjing Jiancheng Bioengineering Institute, Nanjing, China) following the manufacturer’s instructions.

Where [1] appears, read: GENI administration group compared with the D-gal model group.

On to `CC(C)CCOC(=O)C1=CO[C@@H](O[C@@H]2O[C@H](CO)[C@@H](O)[C@H](O)[C@H]2O)C2C(CO)=CCC12` (stereo partly shown) [GENI, Geniposidic 4-isoamyl ester], for which the “rate of alternating arms in the Y maze test” value in the assay on D-gal-induced AD mice (GENI 25 and 50 mg/kg i.g., versus D-gal group) is reported as “significantly increase”. Also, in the assay with D-gal-induced AD mice (setting [1]), the “escape latency in the Morris water maze test” value is given as “significantly reduced” and the “number of crossing platforms in the Morris water maze test” value is “significantly increased”. The “cognitive index and object recognition index in the NOR experiment” value in the assay with D-gal-induced AD mice (GENI i.g., versus D-gal group) is “significantly increased”. Besides, in the assay with D-gal-induced AD mice (GENI-administered groups), the “sociability and social preferences (three-box social experiment)” value is “significant social skills and social preferences”. For the same compound, the “optimal dose for anti-AD effect” value with D-gal-induced AD mice (comparable to the effect of DON at a dose of 3 mg/kg) came out at 25 mg/kg. For the same compound, the “H2O2-induced increase in MDA” value in the assay on PC12 cells is on record as “significantly reduce”.
